Data from patent US10376589B2, “Method for the treatment of a solid tumour” (The University of Sydney, priority 2011, dated 2019).
pIC50: −log10 of the molar value.

What was measured:
Assay type in all cases: cell-based, human
[1] = test system: DLD-1 colon cancer cells; experiment: MTT cytotoxicity assay, 72 hrs; details: DLD-1, MTT; for pIC50: Homo sapiens
Procedure: (§1) Human DLD-1 colon cancer cells and human PA-1 ovarian cancer cells were obtained from the American Type Culture Collection (Manassas, Va., USA). Cells were maintained in complete media (Advanced DMEM (Invitrogen) and supplemented with 2% foetal bovine serum (Sigma) and 2 mM Glutamax™ (Invitrogen)) at 37° C. in a humidified, 5% CO2 atmosphere. Spheroids were formed by plating 1.5×10^5 cells/ml onto agarose coated 96 well imaging plates (BD Biosciences) and the cells allowed to aggregate for 72 hrs at 37° C. in a humidified, 5% CO2 atmosphere resulting in the formation of single spheroid per well.
(§2) Active compounds and/or nanoparticles were diluted as required in cell media immediately prior to the assay. Cytotoxicity was determined using the MTT assay as follows. 1×10^5 cells were seeded onto each well of flat bottomed 96-well plates and allowed to attach overnight. Solutions of compounds+/−nanoparticles were added to triplicate wells at concentrations spanning a 4-log range and incubated for 72 hrs. MTT (3-(4, 5-dimethylthiazolyl-2)-2,5-diphenyltetrazolium bromide) (1.0 mM) was added to each well and were incubated for a further 4 hrs. The culture medium was removed from each well, DMSO (150 μL) was added, the plate shaken for 5 seconds and the absorbance measured immediately at 600 nm in a Victor^3V microplate reader (Perkin Elmer). IC50 values were determined as the drug concentration that reduced the absorbance to 50% of that in untreated control wells. At least three independent experiments were performed for each compound with triplicate readings in each experiment.

[2] = test system: PA-1 ovarian cancer cells; experiment: MTT cytotoxicity assay, 72 hrs; details: PA-1, MTT
Procedure: as §1, §2

[3] = test system: DLD-1 spheroids; experiment: Cisplatin accumulation in spheroids by atomic absorption spectroscopy; details: cisplatin 6 ppm without iron oxide particles, 48 hours incubation
Procedure: as §1
DLD-1 spheroids prepared as per example 25 were dosed as with 100 μl of solution of complete media containing cisplatin and iron oxide nanoparticles from examples 1 and 2 to yield a final concentration of both cisplatin and iron oxide of 6 ppm. The spheroids with iron oxide particles and cisplatin were replaced in the incubator and maintained at 37° C. in a 5% CO2 atmosphere. After 48 hours incubation, the free cisplatin and nanoparticles in the media were washed with excess phosphate buffered saline.

[4] = test system: DLD-1 spheroids; experiment: Confocal imaging of fluorescent active compound diffusion into spheroids
Procedure: as §1
(§3) (a) To the suspension of the 3 day old spheroids from example 25, 100 μl of a solution containing nanoparticles incomplete media was added to each spheroid, to yield a final concentration of particles of 10 ppm in 200 μl total volume. he spheroids were replaced in an incubator at 37° C., 5% CO2. […]
DLD-1 spheroids from example 25 were either dosed with NP2 (example 2), which are particles coated with a stabiliser containing a phosphate anchoring group or NP19 or NP23 (examples 19 and 23), which are particles coated with a stabiliser that has no anchoring portion as per example 27b. The spheroid was then imaged by confocal microscopy (as per example 28) to visualise doxorubicin fluorescence.

[5] = test system: PA-1 spheroids; experiment: Spheroid outgrowth assay
Procedure: as §1
as §3, with “CO2. After 24 hours incubation, the nanoparticles in the media were removed by washing with excess phosphate buffered saline prior to further experimentation.” for “CO2.”
Spheroids from example 25 were treated as per example 27b and 27c. […] Widefield fluorescence images of the brightfield and Hoechst 33342 stained nuclei were taken of the cells that had grown out from the spheroid (Olympus CellR). To quantitate the outgrowth, the number of nuclei within a 60° angle from the edge of the spheroid was counted. […]

Compound `O=c1[nH]cc(F)c(=O)[nH]1` [5-Fluorouracil] has a pIC50 [1] of 5.00 and a pIC50 ([2]; Homo sapiens) of 5.00.

In the case of `N.N.[Cl][Pt][Cl]` [Cisplatin], the “concentration of cisplatin in the spheroids” value [3] was 0.20 ppb and the pIC50 [2] was 6.22.

`COc1cccc2c1C(=O)c1c(O)c3c(c(O)c1C2=O)C[C@@](O)(C(=O)CO)C[C@@H]3O[C@H]1C[C@H](N)[C@H](O)[C@H](C)O1` [Doxorubicin] was tested, and the pIC50 [1] was 6.00, the pIC50 ([2]; Homo sapiens) was 6.00 and the “doxorubicin diffusion into the spheroid” value ([4]; doxorubicin alone) was “approximately 70 μm”.

For `O=C1c2c(O)ccc(O)c2C(=O)c2c(NCCNCCO)ccc(NCCNCCO)c21` [Mitoxantrone], the “effectiveness, co-administration versus administration of active compound delayed 24 hours” value ([5]; PA-1 spheroids) was “requires the co-administration of nanoparticles”, the “effectiveness in PA-1 compared to DLD-1 spheroids” value ([5]; active compound co-administered with nanoparticles (examples 2, 3, 4, 5)) was “significantly more effective” and the pIC50 [1] was 7.40. For the same compound, the pIC50 ([2]; Homo sapiens) was 7.70 and the “mitoxantrone diffusion into the spheroid” value ([4]; mitoxantrone alone) was “approximately 70 μm”.

For `CC(=O)O[C@H]1C(=O)[C@@]2(C)[C@H]([C@H](OC(=O)c3ccccc3)[C@]3(O)C[C@H](OC(=O)[C@H](O)[C@@H](NC(=O)c4ccccc4)c4ccccc4)C(C)=C1C3(C)C)[C@]1(OC(C)=O)CO[C@@H]1C[C@@H]2O` [Paclitaxel], the “72 hr IC50” value ([1]; result in words) was “indeterminable*” and the “72 hr IC50” value ([2]; result in words) was “indeterminable*”.
